Entries after “also recorded” stand apart in the source; their conditions may differ.

In series [1] the target is T1, FXR protein (Homo sapiens, UniProt Q96RI1).
T1 sequence (Q96RI1 1-486): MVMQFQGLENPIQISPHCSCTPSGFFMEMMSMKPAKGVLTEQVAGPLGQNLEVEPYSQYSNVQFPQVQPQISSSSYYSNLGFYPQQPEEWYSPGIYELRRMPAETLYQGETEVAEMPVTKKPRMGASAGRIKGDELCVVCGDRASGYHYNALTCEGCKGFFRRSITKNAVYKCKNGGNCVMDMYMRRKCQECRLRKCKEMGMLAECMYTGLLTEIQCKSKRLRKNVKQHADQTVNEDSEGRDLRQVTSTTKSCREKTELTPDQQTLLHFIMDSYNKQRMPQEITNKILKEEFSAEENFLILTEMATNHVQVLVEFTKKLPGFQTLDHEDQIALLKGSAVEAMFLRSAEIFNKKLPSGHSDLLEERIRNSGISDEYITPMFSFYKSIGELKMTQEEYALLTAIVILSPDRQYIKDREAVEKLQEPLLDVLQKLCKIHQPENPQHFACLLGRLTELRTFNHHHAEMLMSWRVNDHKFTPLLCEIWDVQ
The experiment in a line: Surface plasmon resonance (SPR), FXR immobilized on CM5 chip. The settings on record: SPR steady-state affinity fit. It counts as binding. As for the experimental part:
SPR analysis was performed by a Biacore S200 system (Cytiva, USA) equipped with a CM5 sensor chip. The FXR protein was immobilized on the chip via the standard amine coupling protocol, with the protein dissolved in a sodium acetate buffer at pH 4.5 and a concentration of 10 mM. […] Equilibrium dissociation constants (KD) were determined by fitting the response curves using the steady-state affinity model available in the Biacore S200 Evaluation Software.

The test system of series [2] is MAFLD mice. Nature of the series: HFD-induced MAFLD mouse model: body/liver weight, histology, serum biochemistry, hepatic TBA. It counts as in vivo, C57BL/6N mice. The following applies: SNS 5.2 g/kg/d or OCA 10 mg/kg/d orally for 2 weeks. An excerpt: (§1) A standard diet was fed to the NC group, while HFD (D12451, Huanyu Hekang Biotechnology, China) was fed to the other four groups for 12 weeks. […] During this period, mice in the NC group and HFD group were given isovolumetric distilled water respectively.
Serum samples were collected to measure the content of TG, total cholesterol (TC), alanine aminotransferase (ALT), aspartate aminotransferase (AST), high-density lipoprotein cholesterol (HDL-C), and low-density lipoprotein cholesterol (LDL-C). The Reado/Changchun Huili kit was used for the assay, measured by a fully automatic biochemistry analyzer.
The TBA content in liver tissue was detected by a TBA assay kit (E003-2-1, Nanjing Jiancheng Bioengineering Institute, China). According to the kit instruction manual, the liver tissues were subjected to lysis, after which the supernatant was collected and added to a 96-well plate. Blank controls and standard controls were set up. Subsequently, 180 μL of Reagent 1 was added, followed by gentle shaking to mix thoroughly, and incubation at 37 °C for 5 min. After that, 60 μL of Reagent 2 was added, mixed well by gentle shaking, and incubated at 37 °C for 1 min. The absorbance (A0) was measured at a wavelength of 405 nm using a microplate reader. Another incubation at 37 °C for 3 min was conducted, and then the absorbance (A1) was measured again. The ΔA value was calculated as ΔA = A1−A0, which represents the TBA content in the liver tissues.
Liver tissue from each group of mice was fixed in 4% formalin, embedded in paraffin, and prepared as paraffin tissue sections with a thickness of 5 μm. The sections were dewaxed and rehydrated, subsequently subjected to H&E staining, and finally examined under a microscope (Leica DM2500, Germany) for the observation of LDs.
Lipid accumulation in vivo was assessed by oil red O (ORO) staining (G1261, Solarbio, China). For liver tissue, frozen tissue sections were prepared at a thickness of 10 μm. After fixation in formalin, the sections were washed in 60% isopropanol and then stained with freshly prepared ORO working solution for 15 min. Following rinsing with 60% isopropanol, the sections were examined under a microscope.

Series [3] deals with FXR. Nature of the series: FXR protein expression in liver and colon of MAFLD mice (western blot, IHC). It counts as in vivo, C57BL/6N mice. As for the experimental part: as §1
(§2) Total protein was extracted using a protein extraction kit (PC201Plus, Epizyme). Then, the protein concentration was measured using a BCA kit (PC0020, Solarbio). The 50 μg of the total protein samples were loaded onto an SDS-PAGE gel. Following electrophoresis, the protein was transferred into polyvinylidene fluoride (PVDF) membranes. Whereafter, the membranes were first blocked with 5% nonfat dry milk in TBST and incubated with primary antibodies against FXR (bs-12867R, Bioss, 1:1000), GPAT4 (bs-15587R, Bioss, China, 1:1000), P62 (380612-50, Zenbio, China, 1:1000), HSL (344379-50, Zenbio, China, 1:1000), MAGL (PAD223Hu01, Cloud-Clone Corp, China, 1:1000), Beclin1 (BS-1353R, Bioss, China, 1:1000), ATGL (R389129-50, Bioss, China, 1:1000), LC3Ⅰ/Ⅱ (ABC929, Merck, USA, 1:1000), β-actin (bs-0061R, Bioss, China, 1:5000) and GAPDH (GB11002-100, Servicebio, China, 1:5000). After 12 h of incubation at 4 °C, the blots were proceeded with HRP-conjugated secondary antibody. Finally, the immune bands were detected using an ECL detection kit (sb-wb012, Shanghai Shenger Biotechnology Co., Ltd, China). The average gray value was quantified using Image J software.
The paraffin sections of liver were performed dewaxing followed by antigen retrieval, then add FXR primary antibody (bs-12867R, Bioss, 1:200) and GPAT4 primary antibody (bs-1924R, Bioss, 1:200), and incubate overnight at 4 °C. After the diaminobenzidine (DAB) enhanced staining, the sections were mounted with neutral gum. Finally, the images were observed and captured via a Leica DM4000B light microscope (Germany).
In general terms: In western blotting, separated proteins are transferred to a membrane and probed.

The subject of series [4] is GPAT4. Nature of the series: GPAT4 protein expression in liver of MAFLD mice (western blot, IHC). The following applies: vs HFD group. It counts as in vivo, C57BL/6N mice. As for the experimental part:
as §1
as §2, with “After 12 h of incubation at 4 °C, the blots were proceeded with HRP-conjugated secondary antibody.” left out, “software. […]” for “software.”

For series [5], the system named is LDAH. The experiment in a line: LDAH protein level in liver of MAFLD mice (western blot). It counts as in vivo, C57BL/6N mice. The following applies: vs HFD group.
Series [6] relates to HSL, ATGL, MAGL, P62, Beclin1, LC3Ⅰ/Ⅱ. Nature of the series: Lipolysis- and lipophagy-related protein expression in liver of MAFLD mice (western blot). It counts as in vivo, C57BL/6N mice. The settings on record: vs HFD group. As to the method:
as §1, §2

The test system of series [7] is oleic acid-induced HepG2 cells. The experiment in a line: ORO staining of lipid droplets in oleic acid-induced HepG2 cells. It counts as cell-based, human. The following applies: HepG2, OA 24 h; 15% SNS-containing serum vs NS serum, or OCA 1 μM. As for the experimental part: (§3) The HepG2 cell line was purchased from the American Type Culture Collection (Manassas, USA) and cultured in RPMI 1640 medium (Solarbio, China) with 10% fetal bovine serum (Gibco, USA) in an atmosphere with 5% CO2 and 100% humidity at 37 ℃. Oleic acid (OA) was purchased from Shanghai Macklin Biochemical Co., Ltd. (C11391320, Macklin, China). […] Cells were inoculated into 6-well plates and 96-well plates and treated with OA solution and SNS/NS-containing serum for 24 h.
In vitro, the HepG2 cell cells were firstly seeded in 6-well plates (3 × 10^5 cells/well). After the cells were washed with PBS, ORO fixative was added to each well for 20–30 min, and 60% isopropyl alcohol was added to each well for 5 min. Then, ORO staining solution was used to stain the cells for 10–20 min. After the cells were washed with PBS, hematoxylin staining solution was used to re-stain the nucleus. Then, we added ORO buffer for 1 min. Finally, we used glycerin gelatin to seal the tablets. The changes in LDs were measured with Image Pro Plus v6.0 software (Media Cybemetic, USA).

Series [8] deals with FXR. The experiment in a line: FXR expression in oleic acid-induced HepG2 cells (western blot). It counts as cell-based, human. The settings on record: HepG2, OA 24 h; 15% SNS-containing serum or OCA 1 μM. As to the method: as §3
(§4) Total protein was extracted using a protein extraction kit (PC201Plus, Epizyme). Then, the protein concentration was measured using a BCA kit (PC0020, Solarbio). The 50 μg of the total protein samples were loaded onto an SDS-PAGE gel. Following electrophoresis, the protein was transferred into polyvinylidene fluoride (PVDF) membranes. […] Finally, the immune bands were detected using an ECL detection kit (sb-wb012, Shanghai Shenger Biotechnology Co., Ltd, China). The average gray value was quantified using Image J software.

Series [9] has as its system GPAT4. The experiment in a line: GPAT4 expression in oleic acid-induced HepG2 cells (western blot). The settings on record: HepG2, OA 24 h; 15% SNS-containing serum or OCA 1 μM. It counts as cell-based, human. As to the method: as §3, §4
In series [10] the test system is NASH. Further details: method as in PMID 38324483. The settings on record: MAESTRO-NASH Phase III trial; cited from earlier work.
Series [11] relates to T2DM and high-risk obese individuals. The settings on record: cited from earlier work.

The compound `COc1ccc([C@@H]2CC(=O)c3c(O)cc(O[C@@H]4O[C@H](CO[C@@H]5O[C@@H](C)[C@H](O)[C@@H](O)[C@H]5O)[C@@H](O)[C@H](O)[C@H]4O)cc3O2)cc1O` [Hesperidin] gave an Rmax in series [1] of 49.9 RU.
For the compound `COc1cc(-c2oc3cc(O)cc(O)c3c(=O)c2O)ccc1O` [Isorhamnetin], in series [1], the Rmax is 20.3 RU.
With `O=C1C[C@@H](c2ccc(O[C@@H]3O[C@H](CO)[C@@H](O)[C@H](O)[C@H]3O)cc2)Oc2cc(O)ccc21` [Liquiritin], in series [1], the Rmax was determined as 12.1 RU.
On the same count and under the same terms, the result for `COc1ccc([C@@H]2CC(=O)c3c(O)cc(O[C@@H]4O[C@H](CO)[C@@H](O)[C@H](O)[C@H]4O[C@@H]4O[C@@H](C)[C@H](O)[C@@H](O)[C@H]4O)cc3O2)cc1O` [Neohesperidin] reads 181.5 RU.
As for `COc1ccc(-c2cc(=O)c3c(OC)c(OC)c(OC)c(OC)c3o2)cc1OC` [Nobiletin], in series [1], the Rmax was determined as 210.1 RU.
In series [1], `CC[C@H]1[C@@H](O)[C@@H]2[C@H](CC[C@]3(C)[C@@H]([C@H](C)CCC(=O)O)CC[C@@H]23)[C@@]2(C)CC[C@@H](O)C[C@@H]12` [OCA, Obeticholic acid] registered an Rmax of 32.0 RU. Further, in series [2], the “liver coefficient (liver weight/body weight)” value was “restored to normal levels”. Also, in series [2] (vs HFD group), the “body weight at week 12” value is given as “significantly decreased body weight”; the “hepatic TBA level” value is on record as “reduced TBA levels”; the “liver LDs deposition (H&E and ORO staining)” value is “significantly reduced LDs compared to the HFD group”; the liver weight result is “significant reduction in liver weights”. In addition, in [2] (vs HFD group), the “serum ALT” value was “effectively reduced liver injury induced by HFD”; the “serum AST” value was “effectively reduced liver injury induced by HFD”; the “serum LDL-C” value is “reduced following SNS and OCA treatment”; the “serum TC” value was “reduced following SNS and OCA treatment”. Moreover, the “serum TG” value in [2] (vs HFD group) is “reduced following SNS and OCA treatment”. In addition, the “positive localization of FXR in liver tissues” value in series [3] (IHC, liver) was “increased the positive localization of FXR in liver tissues”. Also, in [3] (western blot, colon, vs HFD group), the “FXR expression in the colon” value is listed as “elevated colonic FXR expression”. Moreover, in [3] (western blot, liver, vs HFD group), the “hepatic FXR expression” value is “activated its expression; also recorded: activated FXR”. The “positive localization of GPAT4 in liver tissues” value in series [4] (IHC) is given as “reduced the positive localization of GPAT4 in liver tissues”. Besides, the “GPAT4 expression in liver” value in series [4] (western blot) was “inhibited GPAT4 expressions”. For the same compound, the “protein level of LDAH” value in [5] is “downregulated LDAH”. Moreover, in series [6], the ATGL expression result was “increased HSL and ATGL expression”; the Beclin1 expression entry is given as “activated Beclin1”; the HSL expression entry is “increased HSL and ATGL expression”; the MAGL expression result is recorded as “decreased MAGL expression”. Also, the P62 expression entry in [6] was “suppressed P62 expression”. Also, the “intracellular LDs accumulation (ORO staining)” value in [7] is on record as “reduced LDs deposition in cells”. In series [8], the “FXR expression in cells” value is on record as “increased FXR expression”. Further, the “GPAT4 expression in cells” value in series [9] was “inhibited GPAT4 expression in cells”.
On to `CC(C)c1cc(Oc2c(Cl)cc(-n3nc(C#N)c(=O)[nH]c3=O)cc2Cl)n[nH]c1=O` [Resmetirom], for which, in series [10], the LDL-C decrease is 13–16%; the NASH resolution was 26–30%; the fibrosis improvement is on record as 24–26%; the “tolerability / adverse events” value is “well-tolerated, with primarily mild diarrhea and nausea, and a serious adverse event rate comparable to placebo”.
Consider Semaglutide, for which the “reduction in major adverse cardiovascular events” value in series [11] (SUSTAIN 6 and SELECT, T2DM and high-risk obese individuals) is given as 18–20%. The weight loss result in [11] is listed as “at least 10%”. Besides, the safety profile entry in series [11] (human, in vivo) was “common gastrointestinal reactions and infrequent serious adverse events”.

The record behind these values is PMC12797497, “Si-Ni-San improves the deposition of lipid droplets in MAFLD through modulating the FXR-GPAT4 axis” (Chinese Medicine, 2026).
